Values after ≈ are worked out from the molar mass of the structure shown.
What was measured:
[1] = system: Mycoplasma hyorhinis (ATCC17981s); assay: Inhibition of Mycoplasma hyorhinis cultured in PPLO medium, INT colour change; type: cell-based; details: Mycoplasma, read-out: concentration showing excellent inhibitory activity against mycoplasma
Method: In order to evaluate the effects of the extract and amphidinol derivatives prepared in Example 1 on mycoplasma, Mycoplasma hyorhinis (ATCC17981s) was cultured in a PPLO medium (pleuropneumonia-like organism basal medium, Difco Laboratories, Detroit, USA) supplemented with a fetal calf serum and a yeast extract, according to the method disclosed by Hayflick (Hayflick, 1965, Tex. Rep. Bio. Med. 23, 285-303). That is, 100 μl of the medium was placed on each well of a 96-well plate, and a sample (that is, the extract and amphidinol derivatives prepared in Example 1) was added to each well, such that each sample was diluted from 2 times (i.e., 2× diluted) to 12 times (i.e., 12× diluted), the starting concentration being 1 mg/ml. Mycoplasma was cultured in a PPLO medium (pleuropneumonia-like organism basal medium, Difco Laboratories, Detroit, USA) supplemented with a fetal calf serum and a yeast extract, at a temperature of 37° C. for 48 hours. The resulting culture medium was diluted with the PPLO medium at a ratio of 1:10. 100 μl of the diluted culture medium was added to each well of the 96-well plate, so that the total amount of each well was 200 μl. After culturing at a temperature of 37° C. for 24 hours, 40 μl of 0.2 mg/ml INT (p-iodonitrotetrazolium) was added thereto and culturing was further performed for 4 hours. If the medium turns pink following the culturing, the color change means that metabolism of mycoplasma actively occurs. Also, if mycoplasma is suppressed by the sample, the medium turned pink less.

[2] = system: cell lines NIH3T3, HepG2, and Raw 264.7 contaminated with mycoplasma; assay: Removing mycoplasma from contaminated cell lines with AM3, PCR with mycoplasma diagnosis kit; type: cell-based; details: 20 μg/ml, two 3-day cultures; NIH3T3, HepG2, Raw 264.7
Method: Various cell lines constructed in laboratories of colleges located in Seoul were obtained. The obtained cell lines were cultured in a DMEM (GIBCO BRL, Cat. No. 12800-058) for 3 days, and then the cells were harvested. PCR was performed thereon with a mycoplasma diagnosis kit (Promokine, Germany; Cellsafe Co., Ltd., Korea) according to the enclosed protocol. The resulting PCR products were electrophoresed on a 1% agarose gel to measure the mycoplasma contamination. As a result, it was confirmed that three cell strains, i.e., NIH3T3, HepG2, Raw 264.7 cell lines, were infected with mycoplasma (see FIG. 1).
(§1) The cell lines NIH3T3, HepG2, and Raw 264.7, which were confirmed to be contaminated with mycoplasma, were each inoculated at a concentration of 1×10^6 cells on a T-75 culture flask (NUNC, Cat. No. 156367). DMEM (GIBCO BRL, Cat. No. 12800-058) containing 10% or less of serum (GIBCO BRL, Cat. No. 10082-147) was added thereto, followed by culturing for 3 days.
as §1, with “thereto and then 20 μg/ml of amphidinol” for “thereto, followed by culturing for”, “(AM3) was added thereto. […]” for “days.”

With `C=C/C=C/CC/C=C/C=C/C=C/CC/C=C/C(O)C(O)C1OC(C(O)C(O)C(=C)CCC(O)C2CC(O)C(O)C(C(O)C(O)/C=C(\C)CCC(O)CC(O)C(O)C(C)CC(O)C(O)CCCCCC(O)CCCC(O)/C=C/CC(O)/C=C/CC(O)CO)O2)CC(O)C1O` (centres unmarked) [AM3, amphidinol 3] the IC50 [1] was ~0.25 µg/mL (≈ 0.188 µM) and the mycoplasma contamination [2] was “completely removed”.

Source: patent US8815565B2, “Method for culturing mycoplasma contamination-free cells and method for removing mycoplasma contamination of cells” (Cellsafe Co., Ltd., priority 2010, dated 2014)
